# Experimental data published in patent publication US9352030B2, “Mycobacterium antigenic composition” (priority 2010, dated 2016).
# B1: Rv1196: Rv1196 protein (SEQ ID No: 1) from Mycobacterium tuberculosis H37Rv, obtained from Corixa Corporation (protein)
# chain: MVDFGALPPEINSARMYAGPGSASLVAAAQMWDSVASDLFSAASAFQSVVWGLTVGSWIGSSAGLMVAAASPYVAWMSVTAGQAELTAAQVRVAAAAYETAYGLTVPPPVIAENRAELMILIATNLLGQNTPAIAVNEAEYGEMWAQDAAAMFGYAAATATATATLLPFEEAPEMTSAGGLLEQAAAVEEASDTAAANQLMNNVPQALQQLAQPTQGTTPSSKLGGLWKTVSPHRSPISNMVSMANNHMSMTNSGVSMTNTLSSMLKGFAPAAAAQAVQTAAQNGVRAMSSLGSSLGSSGLGGGVAANLGRAASVGSLSVPQAWAAANQAVTPAARALPLTSLTSAAERGPGQMLGGLPVGQMGARAGGGLSGVLRVPPRPYVMPHSPAAG
# modifications: Mycobacterium tuberculosis H37Rv
# B2: M72: fusion protein antigen comprising Rv1196, M72 with two N-terminal His residues, SEQ ID No: 7 (protein)
# chain: MHHTAASDNFQLSQGGQGFAIPIGQAMAIAGQIRSGGGSPTVHIGPTAFLGLGVVDNNGNGARVQRVVGSAPAASLGISTGDVITAVDGAPINSATAMADALNGHHPGDVISVTWQTKSGGTRTGNVTLAEGPPAEFMVDFGALPPEINSARMYAGPGSASLVAAAQMWDSVASDLFSAASAFQSVVWGLTVGSWIGSSAGLMVAAASPYVAWMSVTAGQAELTAAQVRVAAAAYETAYGLTVPPPVIAENRAELMILIATNLLGQNTPAIAVNEAEYGEMWAQDAAAMFGYAAATATATATLLPFEEAPEMTSAGGLLEQAAAVEEASDTAAANQLMNNVPQALQQLAQPTQGTTPSSKLGGLWKTVSPHRSPISNMVSMANNHMSMTNSGVSMTNTLSSMLKGFAPAAAAQAVQTAAQNGVRAMSSLGSSLGSSGLGGGVAANLGRAASVGSLSVPQAWAAANQAVTPAARALPLTSLTSAAERGPGQMLGGLPVGQMGARAGGGLSGVLRVPPRPYVMPHSPAAGDIAPPALSQDRFADFPALPLDPSAMVAQVGPQVVNINTKLGYNNAVGAGTGIVIDPNGVVLTNNHVIAGATDINAFSVGSGQTYGVDVVGYDRTQDVAVLQLRGAGGLPSAAIGGGVAVGEPVVAMGNSGGQGGTPRAVPGRVVALGQTVQASDSLTGAEETLNGLIQFDAAIQPGDAGGPVVNGLGQVVGMNTAAS
# modifications: M72 fusion with 2 additional his residues
# B3: Mtb72f: fusion protein antigen, Mtb72f with 6 his residues, SEQ ID No: 11 (protein)
# chain: MHHHHHHTAASDNFQLSQGGQGFAIPIGQAMAIAGQIRSGGGSPTVHIGPTAFLGLGVVDNNGNGARVQRVVGSAPAASLGISTGDVITAVDGAPINSATAMADALNGHHPGDVISVTWQTKSGGTRTGNVTLAEGPPAEFMVDFGALPPEINSARMYAGPGSASLVAAAQMWDSVASDLFSAASAFQSVVWGLTVGSWIGSSAGLMVAAASPYVAWMSVTAGQAELTAAQVRVAAAAYETAYGLTVPPPVIAENRAELMILIATNLLGQNTPAIAVNEAEYGEMWAQDAAAMFGYAAATATATATLLPFEEAPEMTSAGGLLEQAAAVEEASDTAAANQLMNNVPQALQQLAQPTQGTTPSSKLGGLWKTVSPHRSPISNMVSMANNHMSMTNSGVSMTNTLSSMLKGFAPAAAAQAVQTAAQNGVRAMSSLGSSLGSSGLGGGVAANLGRAASVGSLSVPQAWAAANQAVTPAARALPLTSLTSAAERGPGQMLGGLPVGQMGARAGGGLSGVLRVPPRPYVMPHSPAAGDIAPPALSQDRFADFPALPLDPSAMVAQVGPQVVNINTKLGYNNAVGAGTGIVIDPNGVVLTNNHVIAGATDINAFSVGSGQTYGVDVVGYDRTQDVAVLQLRGAGGLPSAAIGGGVAVGEPVVAMGNSGGQGGTPRAVPGRVVALGQTVQASDSLTGAEETLNGLIQFDAAIQPGDSGGPVVNGLGQVVGMNTAAS
# modifications: Mtb72f fusion with 6 additional his residues
# Key:
# [1] = tested on: chicken Red Blood cells (RBC); assay: QS21 lytic activity haemolysis assay (limit test); assay type: cell-based; settings: RBC 30 min RT, OD at 540 nm
# Procedure: QS21 lytic activity was measured by a haemolysis assay using chicken Red Blood cells (RBC). RBC were centrifuged at 550 g at 4° C. Supernatant was discarded. The pellet was carefully resuspended in PBS buffer to reach the initial volume and the same operation was repeated until supernatant was no longer red (generally 3 times). The pellet was stored at 4° C. for 3 to 4 days maximum if not used directly (and washed again the day it is used) or was diluted around 10 times in buffer if used the same day.
# A QS21 dose range curve was prepared in ASA buffer (in salt or in sorbitol buffer following the ASA sample tested) extemporaneously and the adjuvant samples (containing a 50 ug or 90 ug equivalent of QS21 meaning the equivalent of 500 ul or 900 ul ASA) were prepared. Final volume was adjusted to 900 ul in standards and samples with adequate buffer (containing or not sorbitol as a function of the buffer of the sample tested). Due to its opalescence, ASA interferes with optical density (OD). ASA “blanks” were thus prepared and their OD was subtracted from the OD of ASA tested samples. Those blanks corresponded to the same ASA volume as the volume tested in samples, but adjusted to 1 ml with buffer. No RBC were added to these blanks. Standards and samples were then incubated with RBC (100 ul of diluted RBC added to 900 ul of standards and samples) for 30 minutes at room temperature (RT). Samples were then centrifuged 5 minutes at 900 g. Optical density at 540 nm was measured after centrifugation.
# Determination of lytic activity was carried out by a limit test.
# 1. Limit of detection (LOD) was defined as the lowest concentration of QS21 leading to an OD: • Higher than the base level (OD>0.1) • Around three times higher than OD's buffer (the “0 ug” QS21) • In the ascendant part of the curve • Determined for each test.
# 2. QS21 lytic activity was held to be positive in the adjuvant samples if the OD for the adjuvant sample was greater than the ODLOD).
# [2] = Conductivity determination (Malvern Zetasizer Nano); assay type: physicochemical
# Procedure: A range of standards having sodium chloride concentrations of 0, 75, 100, 150, 250 and 300 mM were prepared from a stock solution of 1500 mM sodium chloride by dilution in water for injection.
# Immunogenic compositions were prepared using M72 with two N-terminal His residues according to the procedures provided in Example 9. To investigate the contribution from the antigen itself and any residual materials in the purified bulk, placebo lyophilisation cakes were also prepared by excluding the antigen component.
# Using a Malvern Zetasizer Nano and 1.5 ml of each sample in folded capillary cells, a voltage of 30 to 150 V (determined automatically by the instrument) was applied and the conductivity determined.
# [3] = Nephlometry of Rv1196 compositions with varied pH and NaCl after storage; assay type: physicochemical; settings: 100 ug/ml; pH 6.1, 7.5, 8.5; 0, 150, 450 mM NaCl; 24 hours at 4° C. or 25° C.
# Procedure: Rv1196 protein (SEQ ID No: 1) was obtained from Corixa Corporation and was diluted to a concentration of 100 ug/ml in three different buffers (10 mM phosphate buffer at pH 6.1, 20 mM Tris buffer at pH 7.5 and 20 mM Tris buffer at pH 8.5) containing final sodium chloride concentrations of 0, 150 and 450 mM.
# Samples were stored for 24 hours at 4° C. or 25° C. before analysis.
# Nephlometry was performed using a Nepheloskan® Ascent, available from Thermo Fischer Scientific. Analysis was performed in UV transparent Costar® micro-plates available from Corning Inc (USA).
# [4] = DLS of Rv1196 compositions with varied pH and NaCl after storage; assay type: physicochemical; settings: 100 ug/ml; pH 8.5
# [5] = assay type: physicochemical; settings: pH 7.5 or 8.5; sodium chloride 150 mM or greater
# [6] = tested on: M72-specific rabbit polyclonal antibody and M72(Mtb39)-specific mouse monoclonal antibody; assay: M72 antigenicity sandwich ELISA, varied pH and NaCl (Example 10); assay type: binding; settings: pH 7.5 or 8.5; sodium chloride 150 mM or greater
# [7] = assay type: physicochemical; settings: 100 ug/ml; pH 6.1, 7.5, 8.5; 0, 150, 450 mM NaCl; 24 hours at 4° C. or 25° C.
# [8] = assay type: physicochemical; settings: 100 ug/ml; pH 6.1, 7.5, 8.5; 0, 150, 450 mM NaCl; 24 hours at 4° C. or 25° C.; remark: listed apart in the source
molecule,measurement,setting,value
QS21,OD,[1]; 0.5 ug QS21 standard,0.052
same,OD,[1]; 0.6 ug QS21 standard,0.073
same,OD,[1]; 0.7 ug QS21 standard,0.091
same,OD,[1]; 0.8 ug QS21 standard,0.096
same,OD,[1]; 0.9 ug QS21 standard,0.12
[Cl-].[Na+] [sodium chloride],Conductivity,[2]; 75 mM sodium chloride standard in water for injection,8.2 mS/cm
same,Conductivity,[2]; 300 mM sodium chloride standard in water for injection,30.0 mS/cm
B1,clarity by nephlometry with increasing salt concentration,[3],sensitive to salt concentration
same,particle size by DLS,[4],concentration of sodium chloride impacts the measured particle size
B2,change in antigen size,[5],clear increase in antigen size
same,change in antigenicity,[6],reduction in antigenicity
B3,nephlometry trend with salt concentration and pH,[7],sensitive to salt concentration and pH
same,DLS size trend with salt concentration and pH,[8],sensitive to salt concentration and pH
